The text below walks through data of patent publication US6723717B1, “Sulfur-containing thyroxane derivatives and their use as hair growth promotors” (The University of Texas Southwestern Medical Center, priority 1999, dated 2004).

The series relates to male Sprague Dawley rats. Description: Cardiotoxicity Assay (heart-to-body weight ratio). It counts as in vivo, rat. Particulars: 250 μg/kg subcutaneously once daily for 28 days, hearts weighed on day 30. The source says: The cardiotoxicity assay measures the potential of a test compound to adversely affect the cardiovascular system. As thyroid hormone (T3) damages the cardiovascular system, the heart enlarges. See, e.g., Gomberg-Maitland et al., “Thyroid hormone and Cardiovascular Disease”, American Heart Journal, Vol. 135(2), pp. 187-196 (1998); Klein and Ojamaa, “Thyroid Hormone and the Cardiovascular System”, Current Opinion in Endocrinology and Diabetes, Vol. 4, pp.341-346 (1997); and Klemperer et al., “Thyroid Hormone Therapy and Cardiovascular Disease”, Progress in Cardiovascular Diseases, Vol. 37 (4), pp. 329-336 (1996). This increases the weight of the heart relative to whole body weight. The cardiotoxicity assay herein below is used to test compounds for potentially adverse cardiac effects by measuring their effect on the heart-to-body weight ratio.
Two groups each of six male Sprague Dawley rats (Harlan Sprague Dawley, Inc., Indianapolis, Ind.) (each weighing from approximately 220 grams to 235 grams) are utilized. The first group is a vehicle control group and the second group is a test compound group. The length of the assay is 30 days, with treatment of vehicle or test compound in vehicle daily for 28 of those days as described below.
Prior to initiation of the assay, each rat is allowed to acclimate to standard environmental conditions for 5 days. […]

For `N[C@@H](Cc1cc(I)c(Oc2cc(I)c(O)c(I)c2)c(I)c1)C(=O)O` [Example T4, thyroxine], the “cardiac-sparing (index C = RT/RV, heart/body weight ratio of test group over vehicle group; C less than 1.3 = cardiac-sparing)” value was “not cardiac-sparine”.
